The structures appear in SMILES notation. Where two headings read alike, the source gives them in different places.

The term EC50 denotes the concentration giving half of the maximal effect.

For data set [1], the system named is motor neurons derived from ALS patient iPSC line with pathogenic mutation in TARDBP. Nature of the data set: Optopatch excitability assay in motor neurons derived from ALS patient iPSC line (TARDBP mutation). The class given is cell-based, human. The following applies: for EC50: Homo sapiens, iPSC, TARDBP line, blue LED 5.1 mW/cm^2, mean, read-out: EC50, inhibition of excitability (action potential frequency). The source says:
Optopatch Excitability Assay for Example 1 in Motor Neurons Derived From ALS Patient iPSC Lines
Altered excitability of cortical neurons and lower motor neuron is an important factor in the pathophysiology of ALS (See, for example, K. Kanai, et. al., J Neurol Neurosurg Psychiatry, 83, 734-738 (2012); P. Menon, et. al., Eur Neurol., 24, 816-824 (2017)). All-optical electrophysiology (“Optopatch”) was used to evaluate excitability in cultured motor neurons derived from iPSC lines from two ALS patients with different pathogenic mutations.
Cell Culture: The two iPSC lines are derived from one patient with a pathogenic mutation in TARDBP and one patient with a pathogenic repeat expansion mutation in C9orf72, respectively. Motor neurons are generated from these lines by a 2D differentiation method adapted from the dual SMAD inhibition neuronal patterning protocol (See S. M. Chambers, et. al., Nat Biotechnol., 27, 275-280 (2009)) by inclusion of motor neuron morphogens. Differentiation is verified by visual inspection, karyotyping and staining for beta-III-tubulin and the nuclear motor neuron marker ISL1. Neurons are cultured on a monolayer of mouse glia in mTeSR (Stem Cell Technologies), supplemented with 10 ng/mL BDNF. Forty-eight hours prior to imaging, 100 nM trans-retinal was added to the medium.
Transduction with Optopatch vectors: At 15 days in vitro, cultured motor neurons are transduced with a lentiviral vector to drive the co-expression of the actuator CheRiff-mOrange2 and the voltage indicator QuasAr3-Citrine (for details see D. R. Hochbaum, et. al., Nat. Methods, 11, 825-833 (2014)). Forty-eight hours prior to imaging, 100 nM trans-retinal was added to the medium.
Solutions: Recordings are performed in Brainphys™ imaging buffer with 3 mM potassium. The gap junction blocker 2-aminoethoxydiphenyl borate (50 μM) is added to eliminate electrical coupling between cells, and NBQX (10 μM), gabazine (20 μM), and AP5 (25 μM) were used to block synaptic transmission.
Optopatch Recordings: Five days after transduction, Optopatch imaging is performed on a custom, ultra-widefield fluorescence microscope at RT. Motor neurons are illuminated with red laser excitation (200 W/cm^2; 635 nm) to monitor changes in QuasAr fluorescence and blue LED excitation (0-127 mW/cm^2, 470 nm) to depolarize the cell membrane with CheRiff. A custom blue light stimulus protocol is used consisting of: i) 2 sec of red illumination only to monitor spontaneous activity, ii) 5×500 msec steps of increasing blue light intensity and iii) 2×2 sec linearly increasing blue light ramps, each with a different maximum blue intensity. Optopatch data are recorded using a Hamamatsu ORCA-Flash 4.0 sCMOS camera with a 1 kHz frame rate. The field of view size is 4 mm×0.5 mm. Custom control software written in MATLAB is used to control illumination protocols and record all movies. To examine acute effects of Kv7.2/7.3 potentiators, neurons are incubated with test compound for 15 min prior to imaging.
Data Analysis: Image segmentation analysis is performed using temporal Principle Component Analysis and spatial-temporal Independent Component Analysis to isolate individual neurons. A spike-finding algorithm is used to find action potentials, and data are analyzed for compound effects on mean firing rate, adaptation, rheobase and action potential waveform shape by comparing to vehicle controls (for detail, see C. A. Werley, et. al., Curr. Protoc. Pharmacol., 78, 11.20.1-11.20.24. (2017)).
Subjected to the protocol described above, the primary effect of the Example 1 is on the action potential firing rate in response to low intensity blue light illumination.
Fitting a 4-parameter logistic equation to the data may be used to determine the potency (EC50) of the effect of Example 1 on action potential frequency. Results are shown in Table 1 for two separate differentiation efforts each for the lines derived from the patients carrying the TARDBP and C9orf72 mutations.

Data set [2] can be described thus: Unbound exposure in blood (dry blood spots, LC/MSMS, fraction unbound by dialysis) in threshold tracking study. In kind it is in vivo. The following applies: rat. Here is the method: In threshold tracking assay to measure the excitability properties of peripheral axons studies in rat, compound is administered by IP at 3, 10 or 30 mg/kg using 1% hydroxyethylcellulose: 0.25% polysorbate 80:0.05% antifoam:purified water (HEC) formulation. Dry blood spots (DBS) are collected around 10, 20, 30 and terminal 40 min post-dose. DBS samples are dried at RT for around 2 h. Brain samples are obtained at terminal time point and frozen until analysis. DBS samples are shipped and stored at RT.
A 1-mg/mL stock solution of Example 1 is prepared and is serially diluted into pooled rat blood to prepare standards ranging from 1 to 10000 ng/mL. Blood wis spiked to blank DBS cards to make the standards. One 3 mm punch of the DBS standards or samples are added to 96 well plate and 180 μL of the internal standard (IS) in 1:1 ACN:MeOH is added. Shake for 45 min, dilute the extraction solution two fold with water, and analyze by LC/MSMS for drug concentration analysis.
Samples and standards are analyzed with a Sciex API 4000 Triple Quadrupole Mass Spectrometer (Sciex, Division of MDS Inc., Toronto, Canada) coupled to a Shimadzu HPLC System (LC-IOAD, Shimadzu Corporation) and a Gilson 215 Autosampler. […] Quantitation is performed using multiple reaction monitoring (MRM) at the following transitions: Example 1 (m/z 350.2 to m/z 233.0) and an analog internal standard (m/z 263.1 to m/z 148.1). […]
Drug binding to rat plasma proteins and brain homogenates is determined using in vitro dialysis method after spiking drug into these matrixes and incubated over 4.5 h at 37° C., while undergoing orbital shaking. […] Parent is quantitated by LC-MSMS at both 0 and […] time points. Fraction unbound is calculated by dividing the concentration of the buffer side by the concentration of the protein side. Percent recovery is also calculated by dividing the sum of the buffer and protein chambers by the time 0 concentration after 4.5 h. […]

Turning to `CC(C)(C)[C@H](O)CNC(=O)NCc1ccnc(OCC(F)(F)F)c1` [Example 1, 1-[(2S)-2-hydroxy-3,3-dimethyl-butyl]-3-[[2-(2,2,2-trifluoroethoxy)-4-pyridyl]methyl]urea], the EC50 in data set [1] (Diff 1) and in data set [1] (Diff 2) was 150 nM throughout. Also, the “effect on action potential frequency” value in data set [1] (blue LED illumination intensity 5.1 mW/cm^2, text does not distinguish the two lines) was “decreased action potential frequency in a concentration-dependent manner”. In addition, the “observed effects compared with flupirtine” value in data set [1] (both patient lines, vs known Kv7.2/7.3 potentiator flupirtine) is recorded as “qualitatively similar but more potent”. The “Unbound Exposure in Blood (±SEM)” value in data set [2] (3 mg/kg (IP)) is 145 (±90) nM; in data set [2] (10 mg/kg (IP)) it was 193 (±50) nM; in data set [2] (30 mg/kg (IP)), 352 (±245) nM.

The record behind these values is patent publication US12344584B2, “KCNQ potentiators” (Eli Lilly and Company, priority 2019, dated 2025).
